Experimental data as given in US8765433B2, “Alcohol dehydrogenases (ADH) useful for fermentive production of lower alkyl alcohols” (priority 2009, dated 2014).

Columns and labels:
Assay type in all cases: biochemical
[1] = biological target: T1, Beijerinckia indica subsp. Indica ATCC 9039 ADH (BiADH), SEQ ID NO: 31 (Beijerinckia indica, UniProt B2IGW3)
T1 sequence (B2IGW3 1-347): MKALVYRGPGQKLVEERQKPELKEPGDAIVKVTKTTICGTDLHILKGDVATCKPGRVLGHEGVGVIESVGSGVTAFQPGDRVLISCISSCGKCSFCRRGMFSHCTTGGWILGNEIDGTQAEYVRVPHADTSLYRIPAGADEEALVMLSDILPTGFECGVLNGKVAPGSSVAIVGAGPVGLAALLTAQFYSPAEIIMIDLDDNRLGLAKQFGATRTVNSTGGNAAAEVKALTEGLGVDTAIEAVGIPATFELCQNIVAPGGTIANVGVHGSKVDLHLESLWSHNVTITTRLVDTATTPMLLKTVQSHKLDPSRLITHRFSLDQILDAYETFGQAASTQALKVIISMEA
From the text: (§1) This example describes preparation of ADH-gene constructs for over-expression/purification and measurement of enzyme activities using a time-course assay. Horse-liver ADH (HLADH; A-6128) was purchased from Sigma. Achromobacter xylosoxidans SadB (SadB), Saccharomyces cerevisiae ADH6 (ScADH6) and ADH7 (ScADH7), Entamoeba histolytica ADH1 (EhADH1), Bos Taurus Aldehyde Reductase (BtARD), Beijerinckia indica subsp. Indica ATCC 9039 (BiADH), Clostridium beijerinckii ADH (CbADH), Rana perezi ADH8 (RpADH8), Rattus norvegicus ADH1 (RnADH1), Thermus sp. ATN1 ADH (TADH), Phenylobacterium zucineum HLK1 ADH (PzADH), Methylocella silvestris BL2 ADH (MsADH), Acinetobacter baumannii AYE ADH (AbADH), Geobacillus sp. WCH70 ADH (GbADH), Vanderwaltozyma polyspora DSM 70294 ADH (VpADH), Mucor circinelloides ADH (McADH), and Rhodococcus erythropolis PR4ADH (ReADH) were the candidates for which subclones were prepared for protein expression and purification.
(§2) As a routine practice, the crude extracts and purified proteins were assayed for butanol oxidation activity, in order to ensure that the recombinant proteins were active throughout the purification process. […] Alcohol oxidation activities were carried out in 50 mM sodium phosphate buffer at pH 8.8 and aldehyde reduction reactions were assayed in 190 mM potassium phosphate buffer at pH 7.0. Depending on the nature of reaction being carried out, the enzyme and cofactor stocks were diluted in the reaction buffers at the respective pHs. Either buffer or cell extract prepared from the proprietary E. coli strain (with no ADH plasmid) was used as the negative control for assays with purified protein and cell-free extracts, respectively.
(§3) Kinetic constants of the ADH enzymes were calculated and compared to identify those candidate ADH enzymes with the most desirable properties for the conversion of isobutyraldehyde to isobutanol in the last step of the engineered pathway for isobutanol production. The assays for determining the kinetic constants were carried out using initial rates from the assays described above. […] The concentration of a given enzyme was such that it was conducive for the measurement of initial velocities over a 1-min time course. For each enzyme, Michaelis-Menten plots were generated with a broad range of substrate concentrations. Rough estimates of KM were obtained, based on which the assays were redesigned so as to use substrate concentrations in the range 0.5 to 10 times the KM value, to be able to obtain the appropriate kinetic constants. […] Reactions with isobutanol substrate were performed at 30° C. in 50 mM Sodium phosphate buffer, pH 8.8, containing 7.5 mM NAD. The Enzyme kinetics module (Version 1.3) of SigmaPlot 11 (Systat Software, Inc.) was used to fit data to Michaelis-Menten equations and calculate the kinetic constants. The kcat/KM is derived from the individual numbers of kcat and KM and not an experimentally determined value.
(§4) For those enzymes marked with an asterisk in Table 7, at least 3 assays were performed with separate preparations of the enzyme. All other numbers are values from either one assay or are averages from 2 assays performed with the same enzyme sample.

[2] = biological target: T2, Clostridium beijerinckii ADH (CbADH), SEQ ID NO: 29 (Clostridium beijerinckii, UniProt P25984); test: isobutyraldehyde reduction kinetics (A340, initial rates); conditions: relative to SadB
T2 construct: hexa-histidine (pBADHisA) (N); made in house; host or cells: E. coli (BL21-CodonPlus or a proprietary E. coli strain)
T2 sequence (P25984 1-351): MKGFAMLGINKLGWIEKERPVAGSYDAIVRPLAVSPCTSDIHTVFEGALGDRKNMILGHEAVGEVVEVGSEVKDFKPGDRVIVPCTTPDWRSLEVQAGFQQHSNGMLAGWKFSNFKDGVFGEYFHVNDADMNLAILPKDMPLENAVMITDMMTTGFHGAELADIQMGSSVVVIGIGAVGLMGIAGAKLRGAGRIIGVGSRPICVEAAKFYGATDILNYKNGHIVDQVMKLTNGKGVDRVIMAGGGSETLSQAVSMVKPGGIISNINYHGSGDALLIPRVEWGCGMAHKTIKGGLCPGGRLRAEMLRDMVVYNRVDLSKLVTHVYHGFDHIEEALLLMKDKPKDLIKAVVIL
From the text: as §1, §2, §3, §4

[3] = biological target: T3, Rattus norvegicus ADH1 (RnADH1), SEQ ID NO: 32 (Rattus norvegicus, UniProt P06757); test: as above
T3 construct: hexa-histidine (pBADHisA) (N); made in house; host or cells: E. coli (BL21-CodonPlus or a proprietary E. coli strain)
T3 sequence (P06757 whole entry): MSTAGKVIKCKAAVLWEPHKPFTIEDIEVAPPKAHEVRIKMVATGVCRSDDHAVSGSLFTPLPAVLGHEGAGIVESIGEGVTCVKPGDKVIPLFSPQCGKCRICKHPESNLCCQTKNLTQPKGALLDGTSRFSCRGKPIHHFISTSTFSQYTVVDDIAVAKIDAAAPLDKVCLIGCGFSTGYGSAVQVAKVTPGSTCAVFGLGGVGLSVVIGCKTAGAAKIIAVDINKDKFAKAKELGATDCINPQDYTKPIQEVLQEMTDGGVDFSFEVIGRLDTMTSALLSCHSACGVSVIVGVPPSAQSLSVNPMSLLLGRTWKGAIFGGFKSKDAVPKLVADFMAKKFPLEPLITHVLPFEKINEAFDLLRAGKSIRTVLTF
From the text: as §1, §2, §3, §4

[4] = biological target: T4, Thermus sp. ATN1 ADH (TADH), SEQ ID NO: 33 (Thermus sp. ATN1, UniProt B2ZRE3); test: as above; conditions: relative to SadB
T4 sequence (B2ZRE3 1-347): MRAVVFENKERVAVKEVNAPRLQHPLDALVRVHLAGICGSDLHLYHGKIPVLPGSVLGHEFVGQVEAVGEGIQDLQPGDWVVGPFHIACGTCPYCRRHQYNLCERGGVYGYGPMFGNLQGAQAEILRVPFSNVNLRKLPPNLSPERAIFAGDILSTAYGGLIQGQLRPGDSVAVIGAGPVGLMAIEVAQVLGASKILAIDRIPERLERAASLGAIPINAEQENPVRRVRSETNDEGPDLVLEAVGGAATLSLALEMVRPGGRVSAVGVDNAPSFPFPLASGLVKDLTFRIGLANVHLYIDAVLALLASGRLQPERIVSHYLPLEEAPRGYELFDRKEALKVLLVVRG
From the text: as §1, §2, §3, §4

SMILES | KI as a percentage of the same parameter for SadB ([1]; relative to SadB) [%] | catalytic efficiency for isobutyraldehyde reduction, BiADH relative to SadB ([1]; compared with SadB) [times] | KM as a percentage of the same parameter for SadB ([1]; relative to SadB) [%] | kcat as a percentage of the same parameter for SadB ([1]; relative to SadB) [%] | kcat/KM as a percentage of the same parameter for SadB ([1]; relative to SadB) [%] | KM as a percentage of the same parameter for SadB [2] [%] | kcat as a percentage of the same parameter for SadB [2] [%] | kcat/KM as a percentage of the same parameter for SadB [2] [%] | Km ([3]; 30° C., pH 7.0, NADH specific, low KM precludes accurate determination, read-out: KM (Isobutanal)) [µM] | kcat ([3]; isobutyraldehyde reduction, 30° C., pH 7.0, NADH specific) [s⁻¹] | KM as a percentage of the same parameter for SadB ([3]; relative to SadB) [%] | kcat as a percentage of the same parameter for SadB ([3]; relative to SadB) [%] | kcat/KM as a percentage of the same parameter for SadB ([3]; relative to SadB) [%] | KM as a percentage of the same parameter for SadB [4] [%] | kcat as a percentage of the same parameter for SadB [4] [%] | kcat/KM as a percentage of the same parameter for SadB [4] [%]
CC(C)CO [isobutanol, 2-methylpropan-1-ol] | 20 | – | – | – | – | – | – | – | – | – | – | – | – | – | – | –
CC(C)C=O [isobutyraldehyde] | – | ~12 | 20 | 260 | 1192 | 150 | 113 | 81 | ≤ 3 | ~5 | <1 | 5 | 1588 | 130 | 14 | 10
